Experimental data published in patent US10294202B2, “Pyrrolidinones as herbicides” (FMC Corporation, priority 2013, dated 2019).

What was measured:
Experiment in all cases: Test E preemergence herbicide test
Design in all cases: key: 0 = no effect, 100 = complete control
surinam grass = type: in vivo, Brachiaria decumbens
Procedure, shortened: (§1)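 Response is a 0–100 visual rating against controls (100 = complete control), taken 21 days after preemergence treatment of seeded silt loam soil held in a greenhouse.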

panicum, fall = type: in vivo, Panicum dichotomiflorum
Procedure, shortened: as §1

crabgrass, Brazil = type: in vivo, Digitaria horizontalis
Description: Seeds of plant species selected from corn (Zea mays), soybean (Glycine max), velvetleaf (Abutilon theophrasti), lambsquarters (Chenopodium album), wild poinsettia (Euphorbia heterophylla), pigweed, palmer (palmer pigweed, Amaranthus palmeri), waterhemp (common waterhemp, Amaranthus rudis), surinam grass (Brachiaria decumbens), crabgrass, large (large crabgrass, Digitaria sanguinalis), crabgrass, Brazil (Brazilian crabgrass, Digitaria horizontalis), panicum, fall (fall panicum, Panicum dichotomiflorum), foxtail, giant (giant foxtail, Setaria faberii), foxtail, green (green foxtail, Setaria viridis), goosegrass (Eleusine indica), johnsongrass (Sorghum halepense), ragweed (common ragweed, Ambrosia elatior), barnyardgrass (Echinochloa crus-galli), sandbur (southern sandbur, Cenchrus echinatus), arrowleaf […] rhombifolia), ryegrass, Italian (Italian ryegrass, Lolium multiflorum), dayflower, VA (Virginia dayflower, Commelina virginica), field bindweed (Convolvulus arvensis), morningglory (Ipomoea coccinea), nightshade (eastern black nightshade, Solanum ptycanthum), kochia (Kochia scoparia), nutsedge, yellow (yellow nutsedge, Cyperus esculentus), cocklebur (common cocklebur, Xanthium strumarium), smartweed (ladysthumb smartweed, Polygonum Persicaria) and beggarticks (hairy beggarticks, Bidens pilosa), were planted into a silt loam soil and treated preemergence with test chemicals formulated in a non-phytotoxic solvent mixture which included a surfactant. Treated plants and controls were maintained in a greenhouse for 21 days, after which time all species were compared to controls and visually evaluated. Plant response ratings, summarized in Table E, are based on a scale of 0 to 100 where 0 is no effect and 100 is complete control. A dash (-) response means no test result.

SMILES | Plant response rating, Surinam Grass (surinam grass; 16 g ai/ha) | Plant response rating, Surinam Grass (surinam grass; 31 g ai/ha) | Plant response rating, Surinam Grass (surinam grass; 62 g ai/ha) | Plant response rating, Surinam Grass (surinam grass; 125 g ai/ha) | Plant response rating, Surinam Grass (surinam grass; 250 g ai/ha) | Plant response rating, Panicum, Fall (panicum, fall; 16 g ai/ha) | Plant response rating, Panicum, Fall (panicum, fall; 31 g ai/ha) | Plant response rating, Panicum, Fall (panicum, fall; 62 g ai/ha) | Plant response rating, Panicum, Fall (panicum, fall; 125 g ai/ha) | Plant response rating, Crabgrass, Brazil (crabgrass, Brazil; 16 g ai/ha) | Plant response rating, Crabgrass, Brazil (crabgrass, Brazil; 31 g ai/ha) | Plant response rating, Crabgrass, Brazil (crabgrass, Brazil; 62 g ai/ha) | Plant response rating, Crabgrass, Brazil (crabgrass, Brazil; 125 g ai/ha) | Plant response rating, Crabgrass, Brazil (crabgrass, Brazil; 250 g ai/ha) | Plant response rating, Panicum, Fall (panicum, fall; 250 g ai/ha)
O=C1NCC(c2ccc(F)cc2)C1C(=O)Nc1ccccc1F (racemic) [Compound 16] | 0 | 0 | 20 | 35 | 60 | 0 | 0 | 0 | 0 | 25 | 25 | 65 | 80 | 98 | 
O=C1NCC(c2ccc(C(F)(F)F)cc2)C1C(=O)Nc1ccc(F)c(F)c1F (centres unmarked) [Compound 232] |  | 40 | 50 | 70 | 98 |  | 35 | 50 | 50 |  | 95 | 98 | 98 | 98 | 60
